Article PMC4811302, “Human β-defensin 3 contains an oncolytic motif that binds PI(4,5)P2 to mediate tumour cell permeabilisation” (Oncotarget, 2015)
Where no end group is shown, it is not given here.

Assays:
[1] = test system: Primary cells, HUVEC, AHDF and CASMC; test: Tetrazolium-based cell viability assay, primary cells; set-up: species or system human; conditions: range over HUVEC, 48 h, MTT, estimated, three independent experiments
Experimental: Human epithelial cervical cancer (HeLa), leukemic monocyte lymphoma (U937), prostate cancer (PC3), promyelocytic leukemia (HL-60), leukemic T cell lymphoblast (Jurkat) cells were cultured in RPMI-1640 medium supplemented with 5–10% (v/v) fetal calf serum (FCS), 100 U/mL penicillin and 100 μg/mL streptomycin (Invitrogen, Carlsbad, CA). Human umbilical vein […] cell (HUVEC) cells were cultured in M199 medium (Invitrogen) supplemented with 20% (v/v) FCS, 40 μg/mL gentamicin, 4 μg/mL endothelial cell growth factor, 4 μg/mL L-glutamine and 135 μg/mL heparin, in 0.1% (w/v) gelatin-coated Corning CELLBIND flask (Corning Life Sciences, Acton, MA). […]
Different concentrations of HBD-3 were added to cells seeded in 96-well plates in appropriate complete medium. […] After 48 h, cell viability was determined using 3-(4,5-dimethylthiazol-2-yl)-2,5-diphenyltetrazolium bromide (MTT) (Sigma-Aldrich, MO) for adherent cells (HeLa, PC3, HUVEC, AHDF, CASMC) or 3-(4,5-dimethylthiazol-2-yl)-5-(3-carboxymethoxyphenyl)-2-(4-sulfophenyl)-2H-tetrazolium (MTS) (Promega, Madison, WI) coupled with phenzine methosulfate (PMS) (Promega) for suspension cells (U937, HL-60, Jurkat) prior to absorbance measurement at 570 nm and […], respectively. Absorbance readings of untreated control wells was designated as 100% cell viability.

[2] = test system: primary cell type (HUVEC, AHDF, CASMC); test: Flow cytometry-based PI uptake assay, primary cell types; set-up: species or system human; conditions: 50 μM HBD-3 (highest dose tested), each primary cell type, 37°C, 30 min
Experimental: (§1) Cells suspended at 1×10^6 cells/mL in serum-free medium containing 0.1% (w/v) bovine serum albumin (BSA) (Sigma-Aldrich) were treated with HBD-3 at 37°C for 30 min. Nucleic acid stain propidium iodide (PI) was then added to a final concentration of 1 μg/mL and cells subjected to flow cytometry analysis using BD FACSCanto II Flow Cytometer and BD FACSDiva Software v6.1.1 (BD Biosciences, San Jose, CA). For each flow cytometry reading, 10,000 cells, gated appropriately based on forward scattering and side scattering, were recorded. The resultant data were processed using FlowJo software (Tree Star, San Carlos, CA) to determine PI-positivity, which reflects the level of membrane permeabilisation. For lipid inhibition assays, 15 μM HBD-3 was pre-incubated with 50 μM synthetic lipids, including L-α-phosphatidic acid (PA), L-α-phosphatidylcholine (PC), L-α-phosphatidylethanolamine (PE), L-α-phosphatidylserine (PS), L-α-phosphatidylinositol-4-phosphate (PI(4)P), L-α-phosphatidylinositol-3,5-bisphosphate (PI(3,5)P2), L-α-phosphatidylinositol-4,5-bisphosphate (PI(4,5)P2) and L-α-phosphatidylinositol-3,4,5-trisphosphate (PI(3,4,5)P)3. All lipids were sourced from Avanti Polar Lipids, Alabaster, AL. […]

U937 and HeLa cells = test: Confocal laser scanning microscopy of membrane blebbing; type: cell-based, human; conditions: 15 μM HBD-3, 15 min after addition, PKH67 and PI staining
Experimental: (§2) Live imaging was performed on a Zeiss LSM-780 confocal microscope using a 63× oil immersion objective in a 37°C incubator with 5% CO2. Adherent HeLa cells were cultured overnight on coverslips while suspension U937 cells were immobilised onto 0.01% (w/v) poly-L-lysine-coated coverslips. Both cell types were prepared in serum-free RPMI 1640 medium containing 0.1% (w/v) BSA and 2 μg/mL PI. HBD-3 or BODIPY FL EDA-labeled HBD-3 was added directly to the imaging chamber to final concentration of 15 μM, via a capillary tube. In certain experiments, prior to imaging, cells were pre-stained with the membrane dye PKH67 as per manufacturer's instructions (Sigma-Aldrich) or transfected with expression vectors carrying GFP only or GFP-tagged Pleckstrin homology domain of phospholipase C-delta 1 (GFP-PH(PLCδ1)) (kindly provided by Christina Mitchell, Monash University, Australia), using Lipofectamine 3000 reagent (Invitrogen) as per manufacturer's instructions. For CLSM involving transfections, images were taken as 4×4 tiles over 30 min, and the resultant data for GFP and GFP-PH transfected cells were analysed by counting PI-positive cells.

[3] = ATP-encapsulated liposome leakage assay, PC only; conditions: bioluminescence, normalised to HEPES and Triton X-100
Experimental: Liposomes were generated as described previously using natural PI(4,5)P2 (porcine brain, in chloroform:methanol:water at 20:9:1 molar ratio) and PC (chicken egg, in chloroform) purchased from Avanti Polar Lipids. PC only or PC:PI(4,5)P2 (95:5 molar ratio) solutions were dried under a stream of nitrogen gas followed by overnight vacuum-drying. The lipid films were rehydrated to a final concentration of 5 mg/mL in 20 mM HEPES (pH 7.2) containing 5 mg/mL adenosine-5-triphosphate disodium salt (ATP; Sigma-Aldrich) at 37°C for 1 h. After three subsequent cycles of freezing (liquid nitrogen) and thawing (25°C), multilamellar liposomes were extruded 15–20 times through a mini-extruder (Avanti Polar Lipids). Free ATP was removed by three centrifugal washes with 20 mM HEPES at 16,500 g prior to the ATP release assay. Liposomes treated with 1% Triton X-100 were included as positive control and assigned as total lysis, whereas HEPES only control served as background reading. The level of ATP release at a particular time point was determined by quotient of the corrected reading (after subtracting background) of the sample at that time point and corrected reading of total lysis, as per the following equation: % Lysist=Samplet−HEPESt/Triton X−HEPES×100

U937 cells = test: Neomycin inhibition of membrane permeabilisation (PI uptake); type: cell-based, human; conditions: cells pre-treated with 10 mM neomycin, PI uptake by flow cytometry; effect overcome at higher HBD-3 concentrations
Experimental: as §1

HeLa cells = test: PI-positive counting of GFP-PH versus GFP only transfected cells by CLSM; type: cell-based, human; conditions: 15 μM HBD-3, confocal imaging over 30 min, five independent experiments
Experimental: as §2

[4] = Transmission electron microscopy of fibril formation with PI(4,5)P2; conditions: in vitro, data not shown

human β-defensin 3 (GIINTLQKYYCRVRGGRCAVLSCLPKEEQIGKCSTRGRKCCRRKK; not fully specified; cysteine pairing not given here; UniProt P81534 23-67, looked up) [HBD-3, human β-defensin 3, cationic antimicrobial peptide, recombinantly expressed in P. pastoris]
IC50 [1]: 30 to 65 µM
cells permeabilised (PI-positive) [2]: less than 20%
size of membrane blebs formed in PI-positive cells (U937 and HeLa cells): > 10 μm
ATP release from ATP-encapsulated liposomes [3]: minimally induced ATP release
susceptibility of neomycin pre-incubated cells to permeabilisation compared to untreated control (U937 cells): significantly less susceptible
fold lower number of PI-positive cells in GFP-PH(PLCδ) versus GFP only-transfected cells (HeLa cells): 2.5 fold
oligomerisation to fibrils on binding PI(4,5)P2 [4]: not observed
